Measured values: patent publication US11684606B2, “Methods of treating generalized pustular psoriasis with an antagonist of CCR6 or CXCR2” (CHEMOCENTRYX, INC., priority 2018, dated 2023)
In brackets after ≈: the same amount, converted by molar mass. Entries after “also recorded” stand apart in the source; their conditions may differ.

Tests used:
[1] = molecular target: T1, mCCR6 (Mus musculus, UniProt O54689); assay: In vitro inhibition of chemotaxis, mCCR6-transfected BaF3 cells to mCCL20; type: cell-based; settings: in 100% serum
T1 construct: expressed in transfected cells; host or cells: BaF3 cells
T1 sequence (O54689 1-367): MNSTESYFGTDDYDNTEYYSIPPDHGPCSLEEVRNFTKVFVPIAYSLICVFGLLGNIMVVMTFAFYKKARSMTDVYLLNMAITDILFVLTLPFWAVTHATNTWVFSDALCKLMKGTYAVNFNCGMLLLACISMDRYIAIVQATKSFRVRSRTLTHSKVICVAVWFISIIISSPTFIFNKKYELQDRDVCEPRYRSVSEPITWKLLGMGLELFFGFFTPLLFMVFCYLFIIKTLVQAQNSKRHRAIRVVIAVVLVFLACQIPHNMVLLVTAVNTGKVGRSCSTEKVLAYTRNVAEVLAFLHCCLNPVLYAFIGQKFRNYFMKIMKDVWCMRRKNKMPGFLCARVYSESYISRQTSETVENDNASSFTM
Description: (§1) For in vitro determination of chemokine receptor inhibitor activity, Compound 1.136 was dissolved in DMSO to generate a stock concentration of 10 mM that was further diluted in chemotaxis migration buffer (HBSS, 1% BSA, 1% HEPES) to create a 10-point inhibitor gradient ranging from 100 nM-0.01 nM. Migration assay was then run in 100% mouse serum in response to rmCCL20 for CCR6 activity or rmCXCL1 for CXCR2 activity using ChemoTx plates (Neuroprobe, Gaithersburg Md.) and assessed by fluorescence staining of migrated cells with CyQuant (Thermo Fisher).

[2] = molecular target: T2, mCXCR2 (Mus musculus, UniProt P35343); assay: In vitro inhibition of chemotaxis, mouse bone marrow cells to mCXCL1; type: cell-based; settings: in 100% serum
T2 construct: endogenous in cells; host or cells: mouse bone marrow cells (from the earlier reading's assay name)
T2 sequence (P35343 1-359): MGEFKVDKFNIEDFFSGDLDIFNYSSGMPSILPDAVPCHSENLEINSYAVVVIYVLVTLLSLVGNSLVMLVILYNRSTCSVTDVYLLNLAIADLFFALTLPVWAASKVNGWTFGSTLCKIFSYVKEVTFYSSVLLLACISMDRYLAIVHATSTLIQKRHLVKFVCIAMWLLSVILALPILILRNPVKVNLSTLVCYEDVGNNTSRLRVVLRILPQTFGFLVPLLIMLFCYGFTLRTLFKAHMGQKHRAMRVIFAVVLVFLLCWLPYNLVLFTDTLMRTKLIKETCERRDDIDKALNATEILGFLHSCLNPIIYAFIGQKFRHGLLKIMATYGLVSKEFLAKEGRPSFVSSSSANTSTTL
Description: as §1

[3] = molecular target: T3, mCCR5 (Mus musculus, UniProt P51682); assay: Chemotaxis of mCCR5-transfected BaF3 cells to mCCL5; type: cell-based; settings: in serum; unit inferred
T3 construct: expressed in transfected cells; host or cells: BaF3 cells (from the earlier reading's assay name)

[4] = system: IL-36α-injected ears of Balb/c mice; assay: Mouse model of IL-36-induced ear thickening (GPP model); type: in vivo
Description: (§2) For in vivo dosing, mice were dosed subcutaneously with Compound 1.136 once daily (s.c. q.d. in 1% HPMC) at 90 mg/kg unless stated otherwise, starting at day 0 of a study. The in vivo dose was predicted based on in vitro potency and the pharmacokinetic response to a single dose in mice. The minimum antagonist concentration (at trough) to fully cover a gradient-sensing chemoattractant receptor has been determined to correspond with the IC90 concentration (Schall, T. J., and A. E. Proudfoot. 2011. Overcoming hurdles in developing successful drugs targeting chemokine receptors. Nat Rev Immunol 11: 355-363).
Mouse model of IL-36-induced ear thickening. The right ear of 8-week old Balb/c mice received intradermal injections of recombinant murine IL-36α (150 μg per mouse formulated in PBS; BioLegend) every day for 5 days. Intradermal injections of PBS were given to the left ear as a control. Ear thickness was measured prior to start of study and each day thoughout the study using a digital micrometer. The imiquimod model of psoriasiform dermatitis was performed as previously described (Campbell Jet al. J Immunol. 2017; 199(9):3129-36. van der Fits et al. J Immunol 2009; 182(9):5836-45). Briefly, 5% Imiquimod (Fougera®) was applied daily to the shaved and depilated backs of Balb/c mice for up to 4 days. Control mice were treated with an application of Vaseline. Erythema, desquamation, and skin thickening were scored independently on a scale from 0 to 4 where 0=no disease; 1=slight disease; 2=moderate disease; 3=marked disease; 4=very marked disease (Campbell J et al. J Immunol. 2017; 199(9):3129-36. van der Fits et al. J Immunol 2009; 182(9):5836-45). Skin from the backs of mice was excised at the end of the study and processed for flow cytometry analysis,
Mouse anti-IL-17RA. (R&D Systems) was dosed as a positive control at 200-500 μg per mouse, i.p., q.d.

[5] = system: IL-36α-injected ears of Balb/c mice; assay: H&E histology and epidermal thickness of IL-36α-injected ears; type: in vivo, mouse
Description: as §2
For hematoxylin and eosin (H&E) staining, ear tissue was initially fixed in paraformaldehyde for paraffin embedding. Samples were processed by standard procedures. Epidermal thickness was measured as the average of 7 measurements made along the center third (the area containing the lesion) of the length of the H&E stained ear sections using Photoshop CS4 software (Adobe®)

T3 sequence (P51682 whole entry): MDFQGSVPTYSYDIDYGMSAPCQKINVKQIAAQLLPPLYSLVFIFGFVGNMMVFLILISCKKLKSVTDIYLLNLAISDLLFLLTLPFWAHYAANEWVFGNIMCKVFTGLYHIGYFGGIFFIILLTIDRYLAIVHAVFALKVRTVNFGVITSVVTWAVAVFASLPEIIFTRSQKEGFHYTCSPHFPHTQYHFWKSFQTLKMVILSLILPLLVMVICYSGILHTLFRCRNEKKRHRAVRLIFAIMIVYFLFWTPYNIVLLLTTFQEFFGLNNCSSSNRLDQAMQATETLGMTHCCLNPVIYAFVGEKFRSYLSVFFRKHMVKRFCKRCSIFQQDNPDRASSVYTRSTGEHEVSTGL

## CCC(C)(C)[C@@H](Nc1c(Nc2c(F)ccc3c2C(=O)N[C@H]3C)c(=O)c1=O)c1ccc(C)o1 [Compound 1.136]
[1]; BaF3, read-out: IC90 for CCR6 inhibition
  IC90: 0.045 µg/mL (≈ 0.102 µM)
[1]; read-out: IC50 on mouse CCR6, in vitro inhibition of chemotaxis
  IC50: 10 nM
[2]; read-out: IC50 on mouse CXCR2, in vitro inhibition of chemotaxis
  IC50: 20 nM
[2]; read-out: IC90 for CXCR2 inhibition
  IC90: 0.145 µg/mL (≈ 0.33 µM)
[3]
  IC50: > 10000 nM
[4]; 90 mg/kg Compound 1.136 vs saturating dose of anti-IL-17RA MAb (500 μg per mouse per day), Mann-Whitney
  Effectiveness at reducing ear swelling, Compound 1.136 compared with α-IL-17RA: significantly more effective than α-IL-17RA
[4]; Balb/c mice, daily intradermal IL-36α, Compound 1.136 s.c. once daily
  Time course of the effect on ear thickness: appreciable after the second day of treatment
[4]; Balb/c mice, daily intradermal IL-36α, ear thickness after 4 days, Compound 1.136 30-90 mg/kg s.c. q.d., anti-IL-17RA 200 or 500 μg per mouse IP daily
  IL-36-induced ear thickening / ear swelling: dose-dependent decreases in IL-36-induced ear thickening; also recorded: ameliorates inflammatory swelling of IL-36α-injected ears
[5]; H&E ear sections after 4 daily IL-36α treatments, Compound 1.136 90 mg/kg/day s.c., anti-IL17RA 200 μg/mouse/day IP, 90 mg/kg/day
  IL-36α-mediated epidermal thickness: significantly reduced IL-36α-mediated epidermal thickness; also recorded: substantially reduces epidermal thickness
[5]; H&E sections after 4 days of treatment, Compound 1.136 90 mg/kg daily
  Stratum corneum and leukocyte infiltration in histology: the stratum corneum remained intact and leukocyte infiltration was reduced
[5]; H&E sections after 4 days of treatment, Compound 1.136 90 mg/kg daily, 90 mg/kg
  Histology of IL-36α-injected ears: dermal, epidermal and overall skin thickness: reduced IL-36α-induced dermal, epidermal and overall skin thickness; also recorded: substantially improves histology of IL-36α-injected ears
